Results from patent US11235018B2, “Composition for preventing or treating cancer” (OKCHUNDANG CO., LTD., priority 2018, dated 2022).
Marks after values point to notes of the source that are not given here.

How the values were obtained:
[1] = Body weight and weight gain in NCI-H520 xenograft mice; format: in vivo; conditions: single: gefitinib 120 mg/kg or SKOG 400 mg/kg
[2] = tested on: NCI-H520 tumor cell xenograft; assay: Tumor volume in NCI-H520 xenograft mice; format: in vivo; conditions: single: gefitinib 120 mg/kg or SKOG 400 mg/kg
[3] = tested on: NCI-H520 tumor cell xenograft; assay: Tumor weight in NCI-H520 xenograft mice; format: in vivo; conditions: single: gefitinib 120 mg/kg or SKOG 400 mg/kg, oral, 35 days
[4] = Spleen weight in NCI-H520 xenograft mice; format: in vivo; conditions: single: gefitinib 120 mg/kg or SKOG 400 mg/kg, oral, 35 days
[5] = Submandibular lymph node weight in NCI-H520 xenograft mice; format: in vivo; conditions: single: gefitinib 120 mg/kg or SKOG 400 mg/kg, oral, 35 days
[6] = Periovarian fat weight in NCI-H520 xenograft mice; format: in vivo; conditions: single: gefitinib 120 mg/kg or SKOG 400 mg/kg, oral, 35 days
[7] = tested on: IL-6; assay: Serum IL-6 level in NCI-H520 xenograft mice; format: in vivo; conditions: single: gefitinib 120 mg/kg or SKOG 400 mg/kg, oral, 35 days
[8] = tested on: IFN-γ; assay: Serum IFN-γ level in NCI-H520 xenograft mice; format: in vivo; conditions: single: gefitinib 120 mg/kg or SKOG 400 mg/kg, oral, 35 days
[9] = tested on: splenic NK cell; assay: Splenic NK cell activity in NCI-H520 xenograft mice; format: in vivo; conditions: single: gefitinib 120 mg/kg or SKOG 400 mg/kg, oral, 35 days
[10] = tested on: peritoneal NK cell; assay: Peritoneal NK cell activity in NCI-H520 xenograft mice; format: in vivo; conditions: single: gefitinib 120 mg/kg or SKOG 400 mg/kg, oral, 35 days
[11] = tested on: TNF-α; assay: Splenic TNF-α level in NCI-H520 xenograft mice; format: in vivo; conditions: single: gefitinib 120 mg/kg or SKOG 400 mg/kg, oral, 35 days
[12] = tested on: IL-1β; assay: Splenic IL-1β level in NCI-H520 xenograft mice; format: in vivo; conditions: single: gefitinib 120 mg/kg or SKOG 400 mg/kg, oral, 35 days
[13] = tested on: IL-10; assay: Splenic IL-10 level in NCI-H520 xenograft mice; format: in vivo; conditions: single: gefitinib 120 mg/kg or SKOG 400 mg/kg, oral, 35 days
[14] = tested on: NCI-H520 tumor cell xenograft; assay: Histopathological change of tumor mass (tumor cell volume, apoptotic cells); format: in vivo, mice; conditions: single: gefitinib 120 mg/kg or SKOG 400 mg/kg, oral, 35 days
[15] = tested on: Caspase-3; assay: Intratumoral caspase-3 immune response cells; format: in vivo, mice; conditions: single: gefitinib 120 mg/kg or SKOG 400 mg/kg, oral, 35 days
[16] = tested on: PARP; assay: Intratumoral PARP immune response cells; format: in vivo, mice; conditions: single: gefitinib 120 mg/kg or SKOG 400 mg/kg, oral, 35 days
[17] = tested on: COX-2; assay: Intratumoral COX-2 immune response cells; format: in vivo, mice; conditions: single: gefitinib 120 mg/kg or SKOG 400 mg/kg, oral, 35 days
[18] = tested on: iNOS; assay: Intratumoral iNOS immune response cells; format: in vivo, mice; conditions: single: gefitinib 120 mg/kg or SKOG 400 mg/kg, oral, 35 days
[19] = tested on: TNF-α; assay: Intratumoral TNF-α immune response cells; format: in vivo, mice; conditions: single: gefitinib 120 mg/kg or SKOG 400 mg/kg, oral, 35 days
[20] = Histopathological change of spleen; format: in vivo, mice; conditions: single: gefitinib 120 mg/kg or SKOG 400 mg/kg, oral, 35 days
[21] = Histopathological change of submandibular lymph nodes; format: in vivo, mice; conditions: single: gefitinib 120 mg/kg or SKOG 400 mg/kg, oral, 35 days
[22] = Histopathological change of periovarian fat; format: in vivo, mice; conditions: single: gefitinib 120 mg/kg or SKOG 400 mg/kg, oral, 35 days

SMILES: COc1cc2ncnc(Nc3ccc(F)c(Cl)c3)c2cc1OCCCN1CCOCC1 [Gefitinib, N-(3-chloro-4-fluorophenyl)-7-methoxy-6-(3-morpholinopropoxy)quinazolin-4-amine]
- Body weight, administration initiation ([1]; baseline): 19.29 ± 1.29 g
- Actual body weight (excluding tumor weight) ([1]; oral, 35 days): 18.46 ± 0.77^ad g
- Body weight, sacrifice ([1]; oral, 35 days): 20.13 ± 0.76^fg
- Weight gain ([1]; oral, 35 days): −0.83 ± 0.98^ac g
- change of actual body weight excluding tumor weight compared with tumor xenograft group ([1]; oral, 35 days): −6.61%
- change of weight gain during administration period compared with tumor xenograft control group ([1]; oral, 35 days): −341.95%
- Tumor volume, start of administration [A] ([2]; baseline): 462.10 ± 105.87 mm^3
- Tumor volume change [B − A] ([2]; oral, 35 days): 2396.41 ± 329.84 ^a mm^3
- Tumor volume, at the time of sacrifice [B] ([2]; oral, 35 days): 2858.51 ± 377.01^a mm^3
- change in tumor volume during drug administration period compared with tumor xenograft control group ([2]; oral, five weeks): −60.18%
- Tumor weight (absolute weight) [3]: 1.664 ± 0.292^f
- Tumor weight (relative weight) [3]: 8.274 ± 1.443^g
- change in absolute tumor weight compared with tumor xenograft control group [3]: −40.73%
- change in relative tumor weight compared with tumor xenograft control group [3]: −33.56%
- Spleen (absolute weight) [4]: 0.051 ± 0.007^a
- Spleen (relative weight) [4]: 0.251 ± 0.036^a
- change of absolute spleen weight compared with tumor xenograft control group [4]: −7.13%
- change of relative spleen weight compared with tumor xenograft control group [4]: 4.11%
- Submandibular lymph nodes (absolute weight) [5]: 0.004 ± 0.001^d
- change in absolute submandibular lymph node weight compared with tumor xenograft control group [5]: −8.82%
- change in relative submandibular lymph node weight compared with tumor xenograft control group [5]: 1.85%
- submandibular lymph nodes (relative weight) [5]: 0.019 ± 0.006^e
- Periovarian fat (absolute weight) [6]: 0.007 ± 0.002^d
- Periovarian fat (relative weight) [6]: 0.036 ± 0.011^e
- change of absolute periovarian fat weight compared with tumor xenograft control group [6]: −13.43%
- change of relative periovarian fat weight compared with tumor xenograft control group [6]: −2.79%
- change of serum IL-6 level compared with tumor xenograft control group [7]: 6.25%
- change of serum IFN-γ level compared with tumor xenograft control group [8]: −2.85%
- change of splenic NK cell activity compared with tumor xenograft control group [9]: −6.32%
- change of peritoneal NK cell activity compared with tumor xenograft control group [10]: −7.43%
- Splenic TNF-α (Tumor necrosis factor-α) level [11]: 26.23 ± 10.81^a
- change of splenic TNF-α level compared with tumor xenograft control group [11]: −0.24%
- Splenic IL-1β (Interleukin-1β) level [12]: 8.36 ± 1.96^a
- change of splenic IL-1β level compared with tumor xenograft control group [12]: −3.18%
- Splenic IL-10 (Interleukin-10) level [13]: 25.58 ± 11.94^a
- change of splenic IL-10 level compared with tumor xenograft control group [13]: −3.53%
- Percentage of apoptotic cells [14]: 49.88%
- Tumor cell volume [14]: 56.28 %/mm^2
- change of proportion of apoptotic cells in the tumor tissue compared with tumor xenograft control group [14]: 560.23%
- change of proportion of tumor cells in the tumor tissue compared with tumor xenograft control group [14]: −29.01%
- Percentage of immune-responsive cells, Caspase-3 [15]: 40.60 %/tumor cells
- change of proportion of caspase-3 immune response cells in the tumor tissue compared with tumor xenograft control group [15]: 268.77%
- Percentage of immune-responsive cells, PARP [16]: 46.98 %/tumor cells
- change of proportion of PARP immune response cells in the tumor tissue compared with tumor xenograft control group [16]: 223.59%
- Percentage of immune-responsive cells, COX-2 [17]: 38.89 %/tumor cells
- change of proportion of COX-2 immune response cells in the tumor tissue compared with tumor xenograft control group [17]: −35.00%
- Percentage of immune-responsive cells, iNOS [18]: 12.07 %/tumor cells
- change of proportion of iNOS immune response cells in the tumor tissue compared with tumor xenograft control group [18]: −0.50%
- Percentage of immune-responsive cells, TNF-α [19]: 7.28 %/tumor cells
- change of proportion of TNF-α immune response cells in the tumor tissue compared with tumor xenograft control group [19]: −6.19%
- Number of splenic white pulps [20]: 4.63 ± 1.85^a /mm^2
- Splenic white pulp diameter [20]: 187.63 ± 73.54^e μm/white pulp
- change of number of splenic white pulps compared with tumor xenograft control group [20]: −5.13%
- change of splenic overall thickness compared with tumor xenograft control group [20]: 0.42%
- change of splenic white pulp diameter compared with tumor xenograft control group [20]: −0.60%
- Number of intracortical follicles [21]: 5.38 ± 2.39^d /mm^2
- change of number of intracortical follicles in the submandibular lymph nodes compared with tumor xenograft control group [21]: −6.52%
- change of submandibular lymph node cortex thickness compared with tumor xenograft control group [21]: −3.84%
- change of submandibular lymph node overall thickness compared with tumor xenograft control group [21]: −2.55%
- cortex thickness [21]: 215.75 ± 43.93^d μm/lymph node
- submandibular lymph node overall thickness [21]: 501.50 ± 106.64^a μm/central region
- White fat cell average diameter [22]: 12.36 ± 1.95^d μm
- change of periovarian accumulation fat thickness compared with tumor xenograft control group [22]: −8.19%
- change of white fat cell average diameter compared with tumor xenograft control group [22]: −6.37%
